Source: patent US9963462B2 (priority 2015, dated 2018)

What was measured:
[1] = molecular target: SNAP-hSPR (sepiapterin reductase, SPR) (Homo sapiens, UniProt P35270); assay: biochemical; format: binding; conditions: terbium labelled SNAP-hSPR / SSZ labelled SNAP-EGFP; read-out: hTR-FRET IC50
[2] = system: BH4 production in human peripheral blood mononuclear cells (PBMCs); assay: hPBMC assay, inhibition of BH4 production by LC-MS (anti-CD3/anti-CD28 stimulated); format: cell-based; conditions: PBMC, read-out: hPBMC IC50

SNAP-hSPR (sepiapterin reductase, SPR), sequence (P35270 whole entry): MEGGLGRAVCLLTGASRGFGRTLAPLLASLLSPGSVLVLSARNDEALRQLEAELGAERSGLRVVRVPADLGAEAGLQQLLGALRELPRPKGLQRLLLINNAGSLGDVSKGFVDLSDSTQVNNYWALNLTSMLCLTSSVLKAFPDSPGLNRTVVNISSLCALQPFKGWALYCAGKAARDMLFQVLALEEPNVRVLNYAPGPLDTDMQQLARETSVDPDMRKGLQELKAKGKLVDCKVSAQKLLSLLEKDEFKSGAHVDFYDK

| Compound | IC50 [1] [nM] | IC50 [2] [nM] |
| --- | --- | --- |
| CCC(=O)C1CCN(C(=O)c2cnn(-c3nc4c(c(=O)[nH]3)CCC4)c2C)CC1 [Q-1113] | 1 | 16 |
| Cc1c(C(=O)N2CCC(c3nc(-c4ccccn4)cs3)CC2)cnn1-c1nn2cccc2c(=O)[nH]1 [Q-1099] | 1 | 60 |
| Cc1c(C(=O)N2CCC(c3ccc(F)nc3)CC2)cnn1-c1nn2cccc2c(=O)[nH]1 [Q-1105] | 1 | 18 |
| Cc1c(C(=O)N2CCN(S(=O)(=O)c3ccc(F)cc3Cl)CC2)cnn1-c1nn2cccc2c(=O)[nH]1 [Q-1876] | 1 | 110 |
| Cc1c(C(=O)NC2CC(F)(F)C2)cnn1-c1nn2cccc2c(=O)[nH]1 [Q-1177] | 9 | 1300 |
| Cc1c(C(=O)N2CCN(c3nc(-c4cccnc4)cs3)CC2)cnn1-c1nn2cccc2c(=O)[nH]1 [Q-1164] | 1 | 37 |
| Cc1c(C(=O)N2CCc3nc(-c4ccncc4)sc3C2)cnn1-c1nn2cccc2c(=O)[nH]1 [Q-1187] | 4 | 190 |
| CC(=O)C1(c2ccccc2)CCN(C(=O)c2cnn(-c3nn4cccc4c(=O)[nH]3)c2C)CC1 [Q-1215] | 1 | 17 |
| Cc1c(C(=O)N2CCN(c3nc(-c4ccc(C#N)cc4)cs3)CC2)cnn1-c1nn2cccc2c(=O)[nH]1 [Q-1210] | 2 | 84 |
| Cc1c(C(=O)N2CCC(c3nc(-c4ccccn4)cs3)CC2)cnn1-c1nc2c(c(=O)[nH]1)CCC2 [Q-1100] | 1 | 31 |
| Cc1c(C(=O)N2CCN(c3nc(-c4cccc(Cl)c4)cs3)CC2)cnn1-c1nn2cccc2c(=O)[nH]1 [Q-1155] | 10 | 270 |
| Cc1c(C(=O)N2CCC(n3cccc3C#N)CC2)cnn1-c1nn2cccc2c(=O)[nH]1 [Q-1219] | 1 | 79 |
| Cc1c(C(=O)N2CCC3(CCC3=O)CC2)cnn1-c1nn2cccc2c(=O)[nH]1 [Q-1209] | 1 | 920 |
| Cc1c(C(=O)N2CC(N3CCC(F)(F)C3)C2)cnn1-c1nc2cc[nH]c2c(=O)[nH]1 [Q-1255] | 100 | 580 |
| Cc1c(C(=O)N2CCc3nc(-c4cccnc4)sc3C2)cnn1-c1nn2cccc2c(=O)[nH]1 [Q-1206] | 1 | 70 |
| Cc1c(C(=O)N2CCC(n3ccc(C#N)c3)CC2)cnn1-c1nn2cccc2c(=O)[nH]1 [Q-1250] | 1 | 24 |
| Cc1c(C(=O)N2CCc3nc(-c4ccccc4Cl)sc3C2)cnn1-c1nn2cccc2c(=O)[nH]1 [Q-1147] | 7 | 520 |
| Cc1c(C(=O)N2CCN(c3nc(C(F)(F)F)co3)CC2)cnn1-c1nn2cccc2c(=O)[nH]1 [Q-1137] | 3 | 160 |
| O=C(c1cn(-c2nn3cccc3c(=O)[nH]2)nn1)N1CC(N2CCC(F)(F)C2)C1 [Q-1224] | 9 | 370 |
| CCCS(=O)(=O)N1CCN(C(=O)c2cnn(-c3nn4cccc4c(=O)[nH]3)c2C)CC1 [Q-1797] | 1 | 79 |
| Cc1c(C(=O)N2CCN(S(=O)(=O)C(F)(F)F)CC2)cnn1-c1nn2cccc2c(=O)[nH]1 [Q-1886] | 2 | 110 |
| Cc1c(C(=O)N2CCN(S(=O)(=O)c3cccnc3)CC2)cnn1-c1nn2cccc2c(=O)[nH]1 [Q-1857] | 1 | 150 |

| Compound | IC50 [1] [nM] | IC50 [2] [nM] |
| --- | --- | --- |
| O=C(c1cn(-c2nn3cccc3c(=O)[nH]2)nn1)N1CCN(C2CC2)CC1 [Q-1221] | 1 | 37 |
| Cc1c(C(=O)N2CCN(CC(F)(F)F)C3(CCC3)C2)cnn1-c1nn2cccc2c(=O)[nH]1 [Q-1200] | 1 | 150 |
| Cc1c(C(=O)N2C[C@H]3CCC[C@@H](C2)[C@H]3CC(F)(F)F)cnn1-c1nn2cccc2c(=O)[nH]1 [Q-1186] | 1 | 36 |
| Cc1c(C(=O)N2CCN(S(=O)(=O)c3ccccc3C(F)(F)F)CC2)cnn1-c1nn2cccc2c(=O)[nH]1 [Q-1796] | 1 | 260 |
| Cc1c(C(=O)N2CCN(c3ncc(-c4ccccc4Cl)o3)CC2)cnn1-c1nn2cccc2c(=O)[nH]1 [Q-1151] | 8 | 310 |
| Cc1c(C(=O)N2CCN(c3ncc(-c4cccnc4)o3)CC2)cnn1-c1nn2cccc2c(=O)[nH]1 [Q-1162] | 1 | 95 |
| CCC(=O)C1CCN(C(=O)c2cnn(-c3nn4cccc4c(=O)[nH]3)c2C)CC1 [Q-1112] | 1 | 37 |
| Cc1c(C(=O)N2CCN(c3ncc(-c4ccc(Cl)nc4)o3)CC2)nnn1-c1nn2cccc2c(=O)[nH]1 [Q-1190] | 10 | 59 |
| Cc1c(C(=O)N2CC(c3ccnc(C(F)F)c3)C2)cnn1-c1nn2cccc2c(=O)[nH]1 [Q-2008] | 2 | 300 |
| Cc1c(C(=O)N2CC3CCCC(C2)C3=CC(F)(F)F)cnn1-c1nn2cccc2c(=O)[nH]1 [Q-1174] | 1 | 22 |
| Cc1c(C(=O)N2CCN(c3ncc(-c4ccc(F)nc4)s3)CC2)cnn1-c1nn2cccc2c(=O)[nH]1 [Q-1197] | 3 | 26 |
| Cc1c(C(=O)Nc2c(C(C)(O)C(F)(F)F)cnn2C(C)C)cnn1-c1nn2cccc2c(=O)[nH]1 (centres unmarked) [Q-1142] | 1 | 75 |
| Cc1c(C(=O)N2CC3CC(C2)N3C2CCC2)cnn1-c1nn2cccc2c(=O)[nH]1 [Q-1168] | 3 | 58 |
| Cc1c(C(=O)N2CCC(c3nc(C(N)=O)cs3)CC2)cnn1-c1nc2c(c(=O)[nH]1)CCC2 [Q-1091] | 2 | 130 |
| Cc1c(C(=O)N2CCC(c3nccs3)CC2)cnn1-c1nc2c(c(=O)[nH]1)CCC2 [Q-1076] | 1 | 35 |
| Cc1c(C(=O)N2CCN(S(=O)(=O)c3ccccc3Cl)CC2)cnn1-c1nn2cccc2c(=O)[nH]1 [Q-1819] | 1 | 91 |
| Cc1c(C(=O)N2CC3CC(C2)N3C(=O)OC(C)(C)C)cnn1-c1nn2cccc2c(=O)[nH]1 [Q-1170] | 1 | 160 |
| Cc1c(C(=O)N2CCCN(C3CC3)CC2)cnn1-c1nn2cccc2c(=O)[nH]1 [Q-1205] | 3 | 35 |
| Cc1c(C(=O)N2CCN(C(C)C(F)(F)F)CC2)nnn1-c1nn2cccc2c(=O)[nH]1 (centres unmarked) [Q-1889] | 1 | 36 |
| Cc1c(C(=O)N2CCN(S(=O)(=O)Cc3ccccc3)CC2)cnn1-c1nn2cccc2c(=O)[nH]1 [Q-1591] | 3 | 110 |
| Cc1c(C(=O)N2CCN(c3ncc(-c4cccc(C(F)(F)F)c4)o3)CC2)cnn1-c1nn2cccc2c(=O)[nH]1 [Q-1159] | 20 | 600 |
| Cc1c(C(=O)N2CCN(C3CCCC3(F)F)CC2)cnn1-c1nn2cccc2c(=O)[nH]1 (centres unmarked) [Q-1362] | 1 | 43 |

| Compound | IC50 [1] [nM] | IC50 [2] [nM] |
| --- | --- | --- |
| Cc1c(C(=O)N2CCN(CC(F)(F)F)CC2)cnn1-c1nc2c(c(=O)[nH]1)COC2 [Q-1344] | 9 | 320 |
| Cc1c(C(=O)N2CCN(c3nc(-c4ccc(Cl)nc4)cs3)CC2)cnn1-c1nn2cccc2c(=O)[nH]1 [Q-1179] | 2 | 110 |
| Cc1c(C(=O)N2CCc3nc(-c4cccc(Cl)c4)sc3C2)cnn1-c1nn2cccc2c(=O)[nH]1 [Q-1166] | 5 | 20 |
| Cc1c(C(=O)N2CCC(c3noc(C(F)(F)F)n3)CC2)cnn1-c1nc2c(c(=O)[nH]1)CCC2 [Q-1075] | 2 | 17 |
| Cc1c(C(=O)N2CC3CC(C2)N3CC(F)(F)F)cnn1-c1nc2[nH]ccc2c(=O)[nH]1 [Q-1305] | 100 | 1200 |
| Cc1c(C(=O)N2CC(c3ccc(F)cn3)C2)cnn1-c1nn2cccc2c(=O)[nH]1 [Q-1128] | 2 | 48 |
| CCS(=O)(=O)N1CCN(C(=O)c2cnn(-c3nn4cccc4c(=O)[nH]3)c2C)CC1 [Q-1581] | 4 | 170 |
| Cc1c(C(=O)N2CCN(c3nc(-c4ccccc4C(F)(F)F)cs3)CC2)cnn1-c1nn2cccc2c(=O)[nH]1 [Q-1153] | 8 | 630 |
| Cc1c(C(=O)N2CCC(c3nc(C#N)cs3)CC2)cnn1-c1nn2cccc2c(=O)[nH]1 [Q-1093] | 1 | 95 |
| Cc1c(C(=O)N2CC(S(=O)(=O)c3ccccc3)C2)cnn1-c1nn2cccc2c(=O)[nH]1 [Q-2017] | 2 | 170 |
| Cc1c(C(=O)N2CC(c3ccnc(C(F)(F)F)c3)C2)cnn1-c1nn2cccc2c(=O)[nH]1 [Q-2009] | 2 | 370 |
| Cc1c(C(=O)N2CCN(c3ncc(-c4ccccc4F)o3)CC2)cnn1-c1nn2cccc2c(=O)[nH]1 [Q-1149] | 5 | 210 |
| Cc1c(C(=O)N2C[C@H]3CCC[C@@H](C2)[C@@H]3CC(F)(F)F)cnn1-c1nn2cccc2c(=O)[nH]1 [Q-1199] | 1 | 29 |
| Cc1c(C(=O)N2CCC(n3cccc3S(=O)(=O)C(F)(F)F)CC2)cnn1-c1nn2cccc2c(=O)[nH]1 [Q-1288] | 8 | 600 |
| Cc1c(C(=O)N2CCN(c3nnc(-c4cccc(F)c4)o3)CC2)cnn1-c1nn2cccc2c(=O)[nH]1 [Q-1193] | 7 | 160 |
| Cc1c(C(=O)N2CCC(c3nc(C#N)cs3)CC2)cnn1-c1nc2c(c(=O)[nH]1)CCC2 [Q-1104] | 3 | 110 |
| Cc1c(C(=O)N2CCC(C(C(F)F)C(F)(F)F)CC2)cnn1-c1nn2cccc2c(=O)[nH]1 (centres unmarked) [Q-1131] | 1 | 27 |
| Cc1c(C(=O)N2CCN(c3ncc(-c4ccncc4)o3)CC2)cnn1-c1nn2cccc2c(=O)[nH]1 [Q-1161] | 3 | 310 |
| O=C(c1cn(-c2nn3cccc3c(=O)[nH]2)nn1)N1CCN(CC(F)(F)F)CC1 [Q-1223] | 3 | 24 |
| O=C(c1cn(-c2nn3cccc3c(=O)[nH]2)nn1)N1CCN(C2CCC2(F)F)CC1 (centres unmarked) [Q-1247] | 2 | 150 |
